The text below walks through data of patent publication US20080195033A1, “Method of Delivery of Therapeutic Metal Ions, Alloys and Salts” (INTERNATIONAL BIO-THERAPEUTIC RESEARCH INC., priority 2004, published 2008).

The test system of data set [1] is CEM-SS infected with HIVIIIB. Nature of the data set: Cell viability of HIV-infected CEM-SS cells by trypan blue dye exclusion. The format is cell-based, HIV-1. As to conditions: 1.0 mA; for Cell Viability, HIV-Infected Cells: 7 days post exposure. How it is done:
(§1) In one test performed according to the invention, infection studies were carried out in a Level III facility in vitro using HIV-infected and noninfected cells. To establish infection, a viral dose of MOI 0.5 was added to a culture flask. The supernatants of control and test flasks were tested for the presence of the p24 antigen. Cells were then incubated in the presence and absence of silver ions produced by passing current through a sterile silver electrode present in the culture flask. Current was applied for 0, 1, 5, 10 and 30 minutes after incubation of virus with the cells. Cells were then be maintained in culture for 7 days and the concentration of p24 antigen in the supernatant was determined.
(§2) The cells used for such studies were CEM-SS cultured human lymphoblasts to allow detection and monitoring of HIV-induced synceytium. Cells were grown in enriched RPMI medium (20% fetal calf serum; FCS) and maintained in a 5% CO2 enriched tissue culture incubator at 37 degrees Celsius. Infection was conducted at a Multiplicity Dose of 0.5 using HIVIIIB prepared from previously infected CEM-SS stock suspensions.
(§3) In this test performed according to the invention, a silver catheter was introduced by drill into the tissue culture flask, sealed and the flask was then gas-sterilized. Silver ions were generated by connecting the silver electrode to a purpose-built device designed by one of the investigators (RE) powered by a 9 volt battery and designed to generate a steady current of 1.0 milliamp.
(§4) Cell viability was determined using trypan blue dye exclusion. The HIV p24 antigen concentrations in the culture supernatants were determined using an antigen capture assay.
(§5) Each experiment was performed in triplicate and repeated three times. Differences between cells exposed and unexposed to silver ions were compared by analysis of variance.

Data set [2] concerns HIVIIIB in CEM-SS cells (p24 antigen). Description: HIV p24 antigen in culture supernatant by antigen capture assay. The format is cell-based, HIV-1. How it is done: as §1, §2, §3, §4, §5

For silver ions, the “Increase in cell viability of infected cells compared to similar cells not subjected to the silver ion treatment” value in data set [1] (10 minutes of silver ion exposure) was “greater than 25%”. Also, the “Cell Viability, HIV-Infected Cells” value in data set [1] (five minute treatment) was 45% alive; in data set [1] (one minute treatment), 37% alive; in data set [1] (one minute treatment, listed as Silver Ions) it was 37%; in data set [1] (ten minute treatment) it was 54% alive; in data set [1] (ten minute treatment, listed as Silver Ions), 54%; in data set [1] (thirty minute treatment), 28% alive. In data set [2] (after 10 minutes of 1.0 mA current flow), the “Change in p24 antigen (in words)” value is reported as “decline”. Besides, the “Decline in the concentration of p24 antigen in HIV-exposed cultures” value in data set [2] (over thirty minutes, 1.0 mA, p<0.05) is 56%. Also, in data set [2] (silver ion incubation for five minutes), the “Change in p24 concentration (in words)” value is recorded as “initial increase”.
